Among the data in patent US20220162200A1, “PKM2 MODULATORS AND METHODS FOR THEIR USE” (Sumitomo Dainippon Pharma Oncology, Inc., priority 2019, published 2022) are AC50 and EC50 values, retold here.

Molecules are shown by their SMILES. Where only a bound is given, the exact number is not on record here.

The target in test [1] is PKM2 (Homo sapiens, UniProt P14618). As to the kind of experiment: PKM2 activation assay (ATP formation measured by Kinase Glo). To be noted: 2 nM PKM2, 30 min pre-incubation, 75 μM ADP, 15 μM PEP, ATP formation after 30 min. It counts as biochemical. As to the method:
Compounds were pre-incubated with 2 nM PKM2 in reaction buffer (50 mM Tris-HCl, pH 8.0, 200 mM KCl, 30 mM MgCl2, 2 mM Dithiothreitol (DTT), 5% Dimethyl sulfoxide (DMSO)) for 30 min at ambient temperature. Adenosine diphosphate (ADP) and Phosphoenolpyruvic acid (PEP) were then added to final concentrations of 75 μM and 15 μM, respectively. After 30 min, Adenosine triphosphate (ATP) formation was measured by Kinase Glo (Promega, Madison, Wis.), and AC50 values were determined using Prism (GraphPad Software, Inc., La Jolla, Calif.).
For orientation: In Kinase-Glo more light means more ATP remaining.

The subject of test [2] is A549 cells. As to the kind of experiment: A549 cell viability by ATPlite assay. To be noted: Homo sapiens, A549 cells in BME media lacking nonessential amino acids + 5% dialyzed serum, 72 hours. It counts as cell-based. As to the method:
A549 cells were seeded at 5000 cells per well (in 96-well plate) in Basal Medium Eagle (BME) media lacking nonessential amino acids+5% dialyzed serum. After 18 hours, a negative control (i.e., DMSO only) or a representative compound in 0.1% final concentration DMSO was added. After 72 hours, cell viability was determined by ATPlite assay and EC50 values were determined using Prism GraphPad Software (La Jolla, Calif.).
A general note: In ATP-based viability assays light output follows the ATP content of the culture.

PKM2, sequence (P14618 whole entry): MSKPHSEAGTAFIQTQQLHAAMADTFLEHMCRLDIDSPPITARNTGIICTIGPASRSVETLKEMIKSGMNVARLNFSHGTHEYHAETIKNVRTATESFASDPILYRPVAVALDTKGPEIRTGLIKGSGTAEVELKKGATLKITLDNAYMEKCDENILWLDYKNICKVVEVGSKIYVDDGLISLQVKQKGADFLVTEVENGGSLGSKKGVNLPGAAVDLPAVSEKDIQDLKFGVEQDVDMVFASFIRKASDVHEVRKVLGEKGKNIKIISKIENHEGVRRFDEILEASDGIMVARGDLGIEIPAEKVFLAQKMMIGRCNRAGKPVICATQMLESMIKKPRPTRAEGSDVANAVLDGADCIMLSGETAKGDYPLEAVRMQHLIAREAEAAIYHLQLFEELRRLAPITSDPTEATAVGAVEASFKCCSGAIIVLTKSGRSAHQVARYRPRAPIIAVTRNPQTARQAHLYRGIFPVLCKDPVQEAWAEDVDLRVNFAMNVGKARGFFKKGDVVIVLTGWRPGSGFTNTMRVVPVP

The AC50 is the midpoint of the concentration-response curve, whichever way the signal moves. In turn, `Nc1cccc(Cl)c1CN(CCC1CCS(=O)(=O)CC1)C(=O)c1cc(C(F)(F)F)n[nH]1` [Compound Ia, N-(2-amino-6-chlorobenzyl)-N-(2-(1,1-dioxidotetrahydro-2H-thiopyran-4-yl)ethyl)-3-(trifluoromethyl)-1H-pyrazole-5-carboxamide] showed an AC50 in test [1] of less than 15 nM.

The term EC50 denotes the concentration giving half of the maximal effect. Regarding `O=C(c1cc(C(F)(F)F)n[nH]1)N(CCC1CCS(=O)(=O)CC1)Cc1c(F)cccc1Br` [Compound Ib, N-(2-bromo-6-fluorobenzyl)-N-(2-(1,1-dioxidotetrahydro-2H-thiopyran-4-yl)ethyl)-3-(trifluoromethyl)-1H-pyrazole-5-carboxamide], the AC50 in test [1] lay in the range of 15 to 50 nM. Besides, the EC50 in test [2] is more than 100 nM.

In the case of `Cc1ccc(F)c(CN(CCC2CCS(=O)(=O)CC2)C(=O)c2cc(C(F)(F)F)n[nH]2)c1` [Compound Ic, N-(2-(1,1-dioxidotetrahydro-2H-thiopyran-4-yl)ethyl)-N-(2-fluoro-5-methylbenzyl)-3-(trifluoromethyl)-1H-pyrazole-5-carboxamide], the concentration at half-maximal activity (AC50) in test [1] lay within 15 to 50 nM. Further, the EC50 in test [2] lay within 50 to 100 nM.

In turn, `O=C(c1cc(C(F)(F)F)n[nH]1)N(CCC1CCS(=O)(=O)CC1)Cc1c(F)ccc2cc[nH]c12` [Compound Id, N-(2-(1,1-dioxidotetrahydro-2H-thiopyran-4-yl)ethyl)-N-((6-fluoro-1H-indol-7-yl)methyl)-3-(trifluoromethyl)-1H-pyrazole-5-carboxamide] had a half-maximal activity concentration (AC50) in test [1] of less than 15 nM.

Turning to `O=C(c1cc(C(F)(F)F)n[nH]1)N(CCC1CCS(=O)(=O)CC1)Cc1c(F)ccc2c(Cl)c[nH]c12` [Compound Ie, N-(2-(1,1-dioxidotetrahydro-2H-thiopyran-4-yl)ethyl)-N-((3-chloro-6-fluoro-1H-indol-7-yl)methyl)-3-(trifluoromethyl)-1H-pyrazole-5-carboxamide], the AC50 in test [1] is less than 15 nM.

On to `NCc1ccc(F)c(CN(CCC2CCS(=O)(=O)CC2)C(=O)c2cc(C(F)(F)F)n[nH]2)c1` [Compound If, N-(2-(1,1-dioxidotetrahydro-2H-thiopyran-4-yl)ethyl)-N-(2-fluoro-5-aminomethylbenzyl)-3-(trifluoromethyl)-1H-pyrazole-5-carboxamide], for which the AC50 in test [1] lay in the range of 15 to 50 nM. For the same compound, the EC50 in test [2] was more than 100 nM.

The compound `O=C(c1cc(C(F)(F)F)n[nH]1)N(CCC1CCS(=O)(=O)CC1)Cc1c(F)ccc2cn[nH]c12` [Compound Ig, N-(2-(1,1-dioxidotetrahydro-2H-thiopyran-4-yl)ethyl)-N-((6-fluoro-1H-indazol-7-yl)methyl)-3-(trifluoromethyl)-1H-pyrazole-5-carboxamide] showed a concentration at half-maximal activity (AC50) in test [1] of 15 to 50 nM. In addition, in test [2], the 50% effective concentration (EC50) is more than 100 nM.

Compound `Nc1cccc(Br)c1CN(CCC1CCS(=O)(=O)CC1)C(=O)c1cc(C(F)(F)F)n[nH]1` [Compound Ih, N-(2-amino-6-bromobenzyl)-N-(2-(1,1-dioxidotetrahydro-2H-thiopyran-4-yl)ethyl)-3-(trifluoromethyl)-1H-pyrazole-5-carboxamide] registered an AC50 in test [1] of more than 50 nM.

In test [1], `Nc1ccccc1CN(CCC1CCS(=O)(=O)CC1)C(=O)c1cc(C(F)(F)F)n[nH]1` [Compound Ii, N-(2-aminobenzyl)-N-(2-(1,1-dioxidotetrahydro-2H-thiopyran-4-yl)ethyl)-3-(trifluoromethyl)-1H-pyrazole-5-carboxamide] displayed a concentration at half-maximal activity (AC50) of more than 50 nM. The EC50 in test [2] was in the range of 50 to 100 nM.

On to `O=C(c1cc(C(F)(F)F)n[nH]1)N(CCC1CCS(=O)(=O)CC1)Cc1c(F)cccc1Cl` [Compound Ij, N-(2-chloro-6-fluorobenzyl)-N-(2-(1,1-dioxidotetrahydro-2H-thiopyran-4-yl)ethyl)-3-(trifluoromethyl)-1H-pyrazole-5-carboxamide], for which the half-maximal activity concentration (AC50) in test [1] was more than 50 nM.
